This data set is described as follows: Surface tension of hypohalite-based disinfecting compositions, Wilhelmy plate method. Type of data set: physicochemical. Particulars: hypohalite-based disinfecting composition with this surfactant alone (0% or 100% point of the blend plot). As to the method:
Various combinations of surfactants were tested with respect to the surface tension of hypohalite-based disinfecting compositions comprising the surfactant blend. Specifically, exemplary blends were prepared using varying surfactants having an average tail chain length of a C10 to C14 value. The surfactant blends were tested at varying molar ratios.
Accordingly, each surfactant blend comprised a first surfactant having a first surfactant surface tension T^1 and a second surfactant having a second surfactant surface tension T^2. The respective overall surface tension T for each surfactant blend was thereafter tested, using the Wilhelmy plate method.

Regarding `CCCCCCCCCCO[C@@H]1O[C@H](CO)[C@@H](O)[C@H](O)[C@H]1O` [decyl glucoside], the “individual surfactant surface tension” value turned out to be 28.7 mN/m.
For the compound `CCCCCCCCCCCCOS(=O)(=O)[O-].[Na+]` [sodium lauryl sulfate], the “individual surfactant surface tension” value is listed as 29.7 mN/m.
With `CCCCCCCCCCCCCCOS(=O)(=O)[O-].[Na+]` [sodium myristyl sulfate] the figure was 39.8 mN/m; with cocobetaine, 34.7 mN/m; with lauramine oxide, 32.4 mN/m.
As for laureth-6, the figure is 29.7 mN/m; as for myristamine oxide, 32.1 mN/m.
With undeceth-3 the figure was 26.9 mN/m.

The values are drawn from patent US20240090497A1, “SURFACTANT BLENDS FOR HYPOHALITE-BASED DISINFECTING COMPOSITIONS” (GOJO Industries, Inc., priority 2022, published 2024).
